From ChEMBL document CHEMBL1133269, “4-Alkylidenyl glutamic acids, potent and selective GluR5 agonists” (Bioorg Med Chem Lett, 2000) come the findings set out here.

Experiment [1] addresses T1, Glutamate receptor ionotropic, kainate 2 (Homo sapiens, UniProt Q13002). Nature of the experiment: biochemical.
Description: Binding affinity of compound was determined against Ionotropic glutamate receptor ionotropic kainate 2 using cell membranes prepared from HEK293 cells
The next experiment concerns the target Glutamate receptor 2 (Homo sapiens, UniProt P42262). Kind of experiment: Binding affinity of compound was determined against Ionotropic glutamate receptor AMPA 2 using cell membranes prepared from HEK293 cells.
The target of experiment [2] is T2, Glutamate receptor ionotropic, kainate 5 (Homo sapiens, UniProt Q16478).
T2 sequence (Q16478 whole entry): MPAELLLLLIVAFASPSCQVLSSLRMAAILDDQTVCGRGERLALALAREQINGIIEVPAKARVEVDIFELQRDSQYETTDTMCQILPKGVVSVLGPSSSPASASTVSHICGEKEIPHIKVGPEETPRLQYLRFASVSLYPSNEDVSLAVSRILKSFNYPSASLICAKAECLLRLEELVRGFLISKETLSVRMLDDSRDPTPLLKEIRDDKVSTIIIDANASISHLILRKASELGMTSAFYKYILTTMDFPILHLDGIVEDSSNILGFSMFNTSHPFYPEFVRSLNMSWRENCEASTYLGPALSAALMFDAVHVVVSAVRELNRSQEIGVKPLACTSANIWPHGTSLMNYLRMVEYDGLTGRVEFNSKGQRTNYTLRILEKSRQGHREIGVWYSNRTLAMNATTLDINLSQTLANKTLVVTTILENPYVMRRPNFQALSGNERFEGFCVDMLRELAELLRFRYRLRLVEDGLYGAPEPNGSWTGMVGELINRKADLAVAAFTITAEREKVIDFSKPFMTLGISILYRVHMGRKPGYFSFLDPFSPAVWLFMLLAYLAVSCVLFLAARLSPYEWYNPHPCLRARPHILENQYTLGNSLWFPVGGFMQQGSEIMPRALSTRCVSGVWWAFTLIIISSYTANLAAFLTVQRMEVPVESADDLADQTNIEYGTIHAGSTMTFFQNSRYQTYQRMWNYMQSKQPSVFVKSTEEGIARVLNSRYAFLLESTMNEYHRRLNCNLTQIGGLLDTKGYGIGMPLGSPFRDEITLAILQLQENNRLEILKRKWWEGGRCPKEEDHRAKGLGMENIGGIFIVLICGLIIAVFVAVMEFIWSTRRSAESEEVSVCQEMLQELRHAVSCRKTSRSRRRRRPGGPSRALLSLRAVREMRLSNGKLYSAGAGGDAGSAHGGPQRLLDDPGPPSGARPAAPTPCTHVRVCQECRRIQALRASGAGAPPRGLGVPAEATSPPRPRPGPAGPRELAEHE
Nature of the experiment: Binding affinity of compound was determined against Glutamate receptor (KA2) using cell membranes prepared from HEK293 cells.

The target in the next experiment is Glutamate receptor 4 (Homo sapiens, UniProt P48058). Nature of the experiment: biochemical.
The next experiment addresses Glutamate receptor 1 (Homo sapiens, UniProt P42261). Nature of the experiment: biochemical.
The target of experiment [3] is T2, Glutamate receptor ionotropic, kainate 5. Kind of experiment: Binding affinity of compound was determined against KA2 using cell membranes prepared from HEK293 cells.
Experiment [4] concerns the target Glutamate receptor ionotropic, kainate 1 (Homo sapiens, UniProt P39086). Nature of the experiment: biochemical.
Description: Binding affinity of compound was determined against Ionotropic glutamate receptor ionotropic kainate 1 using cell membranes prepared from HEK293 cells
Experiment [5] can be described thus: Selectivity of compound was determined as the ratio of Ki of Glutamate receptor 6 to that of Glutamate receptor 5.
For experiment [6], the target named is T1, Glutamate receptor ionotropic, kainate 2. Kind of experiment: Compound was tested for agonistic activity at Glutamate receptor 6 using HEK293 cells. In kind it is functional, cell-based.
Experiment [7] shares this target. Kind of experiment: Agonistic activity of compound on Glutamate receptor 6 using cell membranes prepared from HEK293 cells was expressed as percentage Rmax; ne means no effect. In kind it is functional, cell-based.

Molecules are shown by their SMILES. pEC50, pKi: −log10 of the molar value. Activity calls are given as the source filed them. The calls are words filed in the database; no cut-off is given here.

Sequence of Glutamate receptor ionotropic, kainate 1 (P39086 whole entry): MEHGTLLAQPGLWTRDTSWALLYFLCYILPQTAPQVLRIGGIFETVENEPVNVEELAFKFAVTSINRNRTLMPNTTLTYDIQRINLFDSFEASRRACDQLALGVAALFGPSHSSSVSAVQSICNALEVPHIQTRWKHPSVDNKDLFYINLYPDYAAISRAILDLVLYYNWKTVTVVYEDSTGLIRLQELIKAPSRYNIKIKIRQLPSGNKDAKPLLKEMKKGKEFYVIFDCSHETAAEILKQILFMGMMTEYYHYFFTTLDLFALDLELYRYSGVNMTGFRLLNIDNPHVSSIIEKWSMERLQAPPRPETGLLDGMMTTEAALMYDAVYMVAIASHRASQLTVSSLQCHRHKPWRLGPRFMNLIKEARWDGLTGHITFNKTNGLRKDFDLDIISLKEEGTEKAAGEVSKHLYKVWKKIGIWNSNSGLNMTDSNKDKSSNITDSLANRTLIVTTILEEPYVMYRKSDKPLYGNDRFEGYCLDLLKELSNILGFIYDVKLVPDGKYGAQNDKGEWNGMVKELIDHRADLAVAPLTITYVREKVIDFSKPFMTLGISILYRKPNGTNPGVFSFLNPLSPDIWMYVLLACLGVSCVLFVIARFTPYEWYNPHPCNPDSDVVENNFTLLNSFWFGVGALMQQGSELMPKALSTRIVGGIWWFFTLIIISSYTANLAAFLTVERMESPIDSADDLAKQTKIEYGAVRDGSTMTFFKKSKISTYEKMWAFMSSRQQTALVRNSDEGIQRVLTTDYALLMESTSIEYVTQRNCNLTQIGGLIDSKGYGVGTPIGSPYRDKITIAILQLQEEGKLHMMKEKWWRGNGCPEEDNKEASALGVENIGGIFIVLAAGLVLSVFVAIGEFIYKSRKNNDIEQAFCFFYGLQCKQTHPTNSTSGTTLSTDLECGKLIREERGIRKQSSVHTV
Sequence of Glutamate receptor 2 (P42262 whole entry): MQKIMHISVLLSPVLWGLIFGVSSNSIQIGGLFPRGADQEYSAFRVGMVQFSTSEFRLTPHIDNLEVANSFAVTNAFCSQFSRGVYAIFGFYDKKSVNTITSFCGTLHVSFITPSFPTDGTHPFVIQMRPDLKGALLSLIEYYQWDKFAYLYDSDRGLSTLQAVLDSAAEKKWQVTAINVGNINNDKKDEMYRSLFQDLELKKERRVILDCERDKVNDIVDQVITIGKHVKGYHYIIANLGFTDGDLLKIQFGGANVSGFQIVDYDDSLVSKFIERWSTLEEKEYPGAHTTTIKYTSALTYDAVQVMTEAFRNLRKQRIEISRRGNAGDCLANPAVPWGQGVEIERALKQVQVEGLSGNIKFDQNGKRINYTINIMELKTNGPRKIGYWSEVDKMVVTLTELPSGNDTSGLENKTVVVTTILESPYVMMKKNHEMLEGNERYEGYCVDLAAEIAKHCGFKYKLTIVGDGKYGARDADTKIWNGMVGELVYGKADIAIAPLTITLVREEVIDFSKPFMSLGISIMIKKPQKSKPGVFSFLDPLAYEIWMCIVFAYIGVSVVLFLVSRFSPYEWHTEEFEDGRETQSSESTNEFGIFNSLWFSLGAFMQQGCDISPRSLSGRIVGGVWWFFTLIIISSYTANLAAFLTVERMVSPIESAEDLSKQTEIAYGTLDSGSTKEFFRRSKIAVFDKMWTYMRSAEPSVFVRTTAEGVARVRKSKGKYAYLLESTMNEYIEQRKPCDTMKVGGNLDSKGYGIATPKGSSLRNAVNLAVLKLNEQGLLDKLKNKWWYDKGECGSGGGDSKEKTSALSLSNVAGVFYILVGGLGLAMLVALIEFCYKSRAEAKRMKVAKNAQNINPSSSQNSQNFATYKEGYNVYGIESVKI
Sequence of Glutamate receptor 4 (P48058 whole entry): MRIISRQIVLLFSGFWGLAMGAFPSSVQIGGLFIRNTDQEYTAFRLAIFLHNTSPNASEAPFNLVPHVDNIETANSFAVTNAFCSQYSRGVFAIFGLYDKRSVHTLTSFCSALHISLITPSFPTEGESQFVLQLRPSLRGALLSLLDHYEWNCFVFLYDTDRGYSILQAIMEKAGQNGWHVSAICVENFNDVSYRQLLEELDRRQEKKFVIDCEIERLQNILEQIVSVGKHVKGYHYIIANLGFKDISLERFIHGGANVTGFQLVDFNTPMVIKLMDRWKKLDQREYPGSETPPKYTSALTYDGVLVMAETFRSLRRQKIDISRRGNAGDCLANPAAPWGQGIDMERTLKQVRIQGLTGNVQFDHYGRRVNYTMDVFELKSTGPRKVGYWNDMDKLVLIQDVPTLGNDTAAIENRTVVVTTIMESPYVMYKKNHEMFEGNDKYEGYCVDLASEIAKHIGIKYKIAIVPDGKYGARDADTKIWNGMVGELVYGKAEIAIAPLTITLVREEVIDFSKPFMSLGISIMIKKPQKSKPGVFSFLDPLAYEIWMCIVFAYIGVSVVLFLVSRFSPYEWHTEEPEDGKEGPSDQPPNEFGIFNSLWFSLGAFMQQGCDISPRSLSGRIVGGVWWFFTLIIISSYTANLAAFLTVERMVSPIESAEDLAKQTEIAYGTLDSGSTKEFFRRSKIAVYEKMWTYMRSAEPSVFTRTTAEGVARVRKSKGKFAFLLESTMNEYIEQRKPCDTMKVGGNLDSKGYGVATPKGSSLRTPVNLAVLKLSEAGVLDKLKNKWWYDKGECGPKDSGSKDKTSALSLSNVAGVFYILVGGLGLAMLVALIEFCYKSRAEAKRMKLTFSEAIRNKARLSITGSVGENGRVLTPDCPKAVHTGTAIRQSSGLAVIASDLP
Sequence of Glutamate receptor 1 (P42261 whole entry): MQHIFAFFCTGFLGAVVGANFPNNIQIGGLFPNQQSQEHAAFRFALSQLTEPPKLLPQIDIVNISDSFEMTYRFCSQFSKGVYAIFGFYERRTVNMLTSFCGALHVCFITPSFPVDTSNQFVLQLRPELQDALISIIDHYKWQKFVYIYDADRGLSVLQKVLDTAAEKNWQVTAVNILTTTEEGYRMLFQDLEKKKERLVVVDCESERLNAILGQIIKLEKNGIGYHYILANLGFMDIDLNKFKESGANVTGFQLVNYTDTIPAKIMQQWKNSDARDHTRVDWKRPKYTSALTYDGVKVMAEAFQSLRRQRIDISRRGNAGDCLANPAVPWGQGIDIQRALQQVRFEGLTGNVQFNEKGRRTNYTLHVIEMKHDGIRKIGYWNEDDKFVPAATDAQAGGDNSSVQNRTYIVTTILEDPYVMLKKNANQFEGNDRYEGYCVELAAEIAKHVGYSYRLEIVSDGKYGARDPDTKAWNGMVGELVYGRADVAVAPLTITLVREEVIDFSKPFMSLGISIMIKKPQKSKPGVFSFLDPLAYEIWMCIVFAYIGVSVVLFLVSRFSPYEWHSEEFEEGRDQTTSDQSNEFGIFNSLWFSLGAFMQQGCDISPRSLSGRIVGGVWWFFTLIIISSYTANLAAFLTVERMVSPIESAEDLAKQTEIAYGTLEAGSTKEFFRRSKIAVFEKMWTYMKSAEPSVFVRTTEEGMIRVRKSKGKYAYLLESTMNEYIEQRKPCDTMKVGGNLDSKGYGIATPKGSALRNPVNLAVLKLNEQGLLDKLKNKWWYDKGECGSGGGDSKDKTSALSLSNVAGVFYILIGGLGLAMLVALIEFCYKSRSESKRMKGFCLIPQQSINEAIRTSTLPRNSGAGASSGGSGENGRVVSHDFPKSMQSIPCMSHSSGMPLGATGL
T1 sequence (Q13002 whole entry): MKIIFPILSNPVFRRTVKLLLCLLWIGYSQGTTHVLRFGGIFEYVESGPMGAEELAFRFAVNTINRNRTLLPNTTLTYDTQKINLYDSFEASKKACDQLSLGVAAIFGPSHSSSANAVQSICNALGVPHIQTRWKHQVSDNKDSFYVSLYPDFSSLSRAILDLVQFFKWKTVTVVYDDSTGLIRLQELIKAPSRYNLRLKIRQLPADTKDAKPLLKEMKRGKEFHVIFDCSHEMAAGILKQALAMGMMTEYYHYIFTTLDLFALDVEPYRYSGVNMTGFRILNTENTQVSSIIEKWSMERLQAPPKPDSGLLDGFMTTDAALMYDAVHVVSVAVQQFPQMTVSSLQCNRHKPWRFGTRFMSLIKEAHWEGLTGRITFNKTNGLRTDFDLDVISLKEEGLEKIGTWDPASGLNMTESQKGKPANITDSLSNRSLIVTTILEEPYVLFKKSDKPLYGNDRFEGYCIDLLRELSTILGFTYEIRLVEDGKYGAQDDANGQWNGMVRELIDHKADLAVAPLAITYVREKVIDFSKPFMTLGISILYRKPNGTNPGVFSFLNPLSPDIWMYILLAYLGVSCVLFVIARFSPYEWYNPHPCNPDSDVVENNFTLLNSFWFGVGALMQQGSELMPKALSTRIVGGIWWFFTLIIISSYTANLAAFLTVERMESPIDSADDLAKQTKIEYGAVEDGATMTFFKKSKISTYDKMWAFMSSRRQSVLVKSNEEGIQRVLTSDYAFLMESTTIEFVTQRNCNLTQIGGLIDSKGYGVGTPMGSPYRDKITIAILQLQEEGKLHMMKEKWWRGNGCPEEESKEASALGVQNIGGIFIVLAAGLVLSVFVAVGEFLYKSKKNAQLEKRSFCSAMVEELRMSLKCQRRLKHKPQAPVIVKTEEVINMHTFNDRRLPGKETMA
Description for Glutamate receptor 1: Binding affinity of compound was determined against Ionotropic glutamate receptor AMPA 1 using cell membranes prepared from HEK293 cells
Description for Glutamate receptor 4: Binding affinity of compound was determined against Ionotropic glutamate receptor AMPA 4 using cell membranes prepared from HEK293 cells

As to `N[C@@H](C/C(=C\c1ccc(Cl)cc1)C(=O)O)C(=O)O`, the pKi in experiment [1] was 3.71.
Same read-out and setting: with `C/C=C/C=C(/C[C@H](N)C(=O)O)C(=O)O` the figure was 4.79.
As to `CC(C)/C=C(/C[C@H](N)C(=O)O)C(=O)O`, the pKi was 4.35 at Glutamate receptor 2; 4.09 in [2]; 4.99 on Glutamate receptor 4; less than 3.30 in experiment [1]; 3.95 at Glutamate receptor 1.
Take `CC(C)/C=C(\C[C@H](N)C(=O)O)C(=O)O`: the pKi in experiment [3] is 5.12; at Glutamate receptor 2, 5.43; at Glutamate receptor 4 it was 5.25; in experiment [1], 4.08; at Glutamate receptor 1 it was 6.15.
Consider `N[C@@H](C/C(=C\CCC(c1ccccc1)c1ccccc1)C(=O)O)C(=O)O`, for which the pKi in experiment [4] was less than 6.00; in experiment [1], less than 4.00. Besides, in experiment [5], the Ratio is 100.
Taken in the same sequence, the figures for `N[C@@H](C/C(=C\C1CCCCC1)C(=O)O)C(=O)O` were 5.22, less than 4.00 and greater than 16.5.
In experiment [1], `CC(C)C/C=C(\C[C@H](N)C(=O)O)C(=O)O` had a pKi of 3.20.
On the same count and under the same terms, the figure for `CCC/C=C(/C[C@H](N)C(=O)O)C(=O)O` is 4.24.
In the case of `CC1(C)CCC/C1=C(/C[C@H](N)C(=O)O)C(=O)O`, the pKi in experiment [4] is 6.63; in experiment [1] it was less than 4.00. Also, the Ratio in experiment [5] was greater than 424.
Turning to `N[C@@H](CC(C(=O)O)=C1CCC1)C(=O)O`, the negative-log Ki (pKi) in experiment [1] is less than 4.00.
As for `C/C=C(/C[C@H](N)C(=O)O)C(=O)O`, the results for the pKi in experiment [4] and in experiment [1] were 5.66 and 5.60, respectively. Also, the Ratio in experiment [5] stood at 1.14.
The corresponding values for `N[C@@H](CC(C(=O)O)=C1CCCCC1)C(=O)O` are 5.29, 3.59 and 49.7.
For the compound `CCC(CC)=C(C[C@H](N)C(=O)O)C(=O)O`, the pKi at Glutamate receptor 2 was 3.55; in experiment [2], 4.67; at Glutamate receptor 4, 5.33; in [1] it was 3.68; on Glutamate receptor 1 it was less than 4.00.
In experiment [1], `C=C(C[C@H](N)C(=O)O)C(=O)O` had a pKi of 6.35.
Turning to `CC/C=C(/C[C@H](N)C(=O)O)C(=O)O`, the pEC50 in [6] was less than 3.52. The compound further had a pKi in experiment [1] of 4.74.
The compound `N[C@@H](CC(C(=O)O)=C1CCCC1)C(=O)O` gave a pEC50 in [6] of less than 4.00. Besides, in [7], the Rmax result was “inactive”. The pKi is 5.43 on Glutamate receptor 2; 5.00 in [2]; 6.27 at Glutamate receptor 4; less than 4.00 in [1]; 5.96 at Glutamate receptor 1.
In experiment [2], `C=C(C)[C@H]1CN[C@H](C(=O)O)[C@H]1CC(=O)O` [KAINIC ACID] gave a pKi of 7.10.
Regarding `CC(C)(C)/C=C(\C[C@H](N)C(=O)O)C(=O)O`, the pKi in experiment [1] is less than 4.00.
Regarding `CC(C)=C(C[C@H](N)C(=O)O)C(=O)O`, the pKi in experiment [4] is 4.86; in [1], less than 3.40. Also, the Ratio in experiment [5] is greater than 28.8.
With `N[C@@H](C[C@@H](C/C=C/c1ccc2ccccc2c1)C(=O)O)C(=O)O`, the pKi at Glutamate receptor 2 and on Glutamate receptor 1 was less than 5.00 in each case.
Compound `N[C@@H](C/C(=C\C1CCCC1)C(=O)O)C(=O)O` gave a pKi in experiment [1] of 4.06.
For the compound `N[C@@H](C/C(=C/CCC(c1ccccc1)c1ccccc1)C(=O)O)C(=O)O`, the pKi in [4] is less than 6.00; in experiment [1], less than 5.00. In addition, the Ratio in experiment [5] worked out at 10.
The corresponding values for `CC1(C)CCC/C1=C(\C[C@H](N)C(=O)O)C(=O)O` are 5.44, 4.33 and 12.8.
`CCCC/C=C(/C[C@H](N)C(=O)O)C(=O)O`: the pKi in [1] was 3.90.
Still for that read-out and setting: with `N[C@@H](C/C(=C\CCc1ccccc1)C(=O)O)C(=O)O` the figure was 3.69; with `N[C@@H](C/C(=C\C=C\c1ccccc1)C(=O)O)C(=O)O`, less than 4.00.
